Consider four compounds from PubChem BioAssay (NCI).

Some test systems named below: HT29 colon; OVCAR-8 ovarian; SR leukemia; SF-268 CNS; COLO 205 colon; SN12C renal; SK-MEL-5 melanoma; UACC-257 melanoma; NCI-H23 lung; PC-3 prostate; M14 melanoma; OVCAR-3 ovarian.
Common to all, as to test: DTP human tumour cell line panel, 48 h

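Where inhibition never reached the appropriate level, the endpoint shown equals the highest concentration tested. Otherwise, values were interpolated linearly from a five-concentration, 48-hour dose response in 96-well plates. GI50 is the concentration that inhibits growth by half. TGI marks complete inhibition of growth.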 A value given as a limit tells only on which side of the number the result lay.

On to `CC1=C(C)[C@@]2(C)O[C@@]2(C)O[C@@]2(C)O[C@@]12C`, for which the TGI in the experiment on HT29 colon, in the experiment on OVCAR-8 ovarian, in the experiment with SR leukemia, with SF-268 CNS, in the experiment with COLO 205 colon and with SN12C renal was more than 100 µM each time. In addition, the TGI in the experiment on SK-MEL-5 melanoma, in the experiment on UACC-257 melanoma, with NCI-H23 lung, in the experiment with PC-3 prostate and in the experiment on M14 melanoma was more than 100 µM in each case.
For the compound `O=C([O-])CC(=O)[O-].O=C([O-])CC(=O)[O-].[K+].[Pd+2]`, the GI50 with OVCAR-8 ovarian, in the experiment with SR leukemia, in the experiment with COLO 205 colon, in the experiment on SN12C renal, in the experiment on OVCAR-3 ovarian and in the experiment on SK-MEL-5 melanoma was more than 100 µM in each case. The GI50 in the experiment with NCI-H23 lung and in the experiment with M14 melanoma was more than 100 µM throughout. Moreover, the TGI in the experiment with OVCAR-8 ovarian, in the experiment with SR leukemia, with COLO 205 colon, in the experiment on SN12C renal, with OVCAR-3 ovarian and in the experiment with SK-MEL-5 melanoma was more than 100 µM each time. Moreover, the TGI with NCI-H23 lung and with M14 melanoma was more than 100 µM each time.
For the compound `O=C(Nc1ccc(C2=NCCN2)cc1)c1cncc(C(=O)Nc2ccc(C3=NCCN3)cc2)c1`, the TGI with HT29 colon is more than 100 µM; with OVCAR-8 ovarian it was more than 100 µM; in the experiment with SF-268 CNS, more than 31.6 µM; in the experiment with COLO 205 colon, more than 100 µM; with SN12C renal, more than 100 µM; in the experiment with OVCAR-3 ovarian, more than 100 µM. Besides, the TGI with SK-MEL-5 melanoma, in the experiment with UACC-257 melanoma and in the experiment on NCI-H23 lung was more than 100 µM in each case.
Regarding `CCOC(=O)C(NC(C)=O)(Nc1ccc(F)cc1)C(F)(F)F` (stereo not drawn), the TGI in the experiment with HT29 colon, in the experiment with OVCAR-8 ovarian, in the experiment on SR leukemia, with SF-268 CNS, in the experiment on COLO 205 colon and with SN12C renal was more than 100 µM each time. For the same compound, the TGI in the experiment on OVCAR-3 ovarian, in the experiment on SK-MEL-5 melanoma, with UACC-257 melanoma, with NCI-H23 lung, in the experiment with PC-3 prostate and with M14 melanoma was more than 100 µM throughout.
